Results reported in patent US20250380696A1, “METHOD FOR CONTROLLING UNDESIRED PLANTS AND PROMOTING GROWTH OF USEFUL PLANTS” (ISHIHARA SANGYO KAISHA, LTD., priority 2022, published 2025).

Key:
Format in all cases: in vivo
[1] = tested on: Italian ryegrass (Lolium multiflorum); test: (2) Herbicidal effect test, pot, spray at 2.5 to 3.0 leaf stage; details: 16th day after spraying
From the text: (§1) [formula] • X: growth inhibition rate when treated with α (g/ha) of compound A, • Y: growth inhibition rate when treated with β (g/ha) of compound B, • E: growth inhibition rate expected when treated with α (g/ha) of compound A and β (g/ha) of compound B (expected value).
(§2) Upland soil was put in a 1/1,000,000 hectare pot, and seeds of Italian ryegrass (Lolium multiflorum) were sown. When the Italian ryegrass reached 2.5 to 3.0 leaf stage, a water-based suspension containing tiafenacil as the active ingredient, prepared by a conventional method for preparing a water-based suspension, and an emulsifiable concentrate containing S-metolachlor as the active ingredient (tradename: Dual Gold, manufactured by Syngenta), were diluted with water (in an amount corresponding to 200 liter per hectare) containing 0.5 vol % of an agricultural spreader (tradename: Destiny HC, manufactured by Winfield Solutions, LLC.) and sprayed by a small spray gun (model: W-101-132G, manufactured by ANEST IWATA Corporation). On the 16th day after spraying, the state of growth of the Italian ryegrass was visually observed, and the growth inhibition rate (%) was obtained in accordance with the evaluation standards described in the above (1) herbicidal effect test, and the results are shown in Table 2. Further, the expected value of the growth inhibition rate (%) was calculated in accordance with the Colby's formula described in the above (1) herbicidal effect test, and the results are also shown in Table 2.

[2] = tested on: Italian ryegrass (Lolium multiflorum); test: (6) Herbicidal effect test, pot, spray at 2.5 to 3.0 leaf stage; details: 14th day after spraying
From the text: as §1
as §2, with “and water dispersible granules” for “and an emulsifiable concentrate”, “containing pyroxasulfone” for “containing S-metolachlor”, “(tradename: Sakura,” for “(tradename: Dual Gold,”, “by Bayer Crop Science)” for “by Syngenta),”, “the 14th” for “the 16th”, “Table 6.” for “Table 2.”

[3] = tested on: forage corn (cultivar: SNOW DENT OTOHA); test: (20) Plant growth promotion effect test (corn), Italian ryegrass sown; details: 33rd day after the sowing, above-ground part
Experimental: Upland soil was put in a 1/1,000,000 hectare pot, and seeds of Italian ryegrass (Lolium multiflorum) were sown. When the Italian ryegrass reached 2.7 to 3.0 leaf stage, a water-based suspension containing tiafenacil as the active ingredient, prepared by a conventional method for preparing a water-based suspension, and an emulsifiable concentrate containing dimethenamid-P as the active ingredient (tradename: Fieldstar P emulsifiable concentrate, manufactured by BASF) were diluted with water (in an amount corresponding to 200 liter per hectare) containing 0.5 vol % of an agricultural spreader (tradename: Destiny HC, manufactured by Winfield Solutions, LLC.) and sprayed by a small spray gun (model: W-101-132G, manufactured by ANEST IWATA Corporation). Seeds of forage corn (cultivar: SNOW DENT OTOHA, manufactured by SNOW BRAND SEED Co., Ltd.) were sown in the pot after spraying. On the 33rd day after the sowing, the above-ground part of the forage corn was reaped, and its weight was measured to obtain the raw weight.

## COC(=O)CCNC(=O)C(C)Sc1cc(-n2c(=O)cc(C(F)(F)F)n(C)c2=O)c(F)cc1Cl (centres unmarked) [tiafenacil]
[1]; Dose 12.5 g/ha
  Growth inhibition rate (%) Measured value: 30%
[2]; Dose 12.5 g/ha
  Growth inhibition rate (%) Measured value: 63%
[3]; Dose 6.25 g/ha
  Raw weight (g) of forage corn: 12.1 g

## COC[C@H](C)N(C(=O)CCl)c1c(C)csc1C [dimethenamid-P]
[3]; Dose 60 g/ha
  Raw weight (g) of forage corn: 9.8 g
[3]; Dose 375 g/ha
  Raw weight (g) of forage corn: 12.5 g
[3]; Dose 750 g/ha
  Raw weight (g) of forage corn: 8.0 g

## CCc1cccc(C)c1N(C(=O)CCl)[C@@H](C)COC [S-metolachlor]
[1]; Dose 62.5 g/ha
  Growth inhibition rate (%) Measured value: 0%
[1]; Dose 125 g/ha
  Growth inhibition rate (%) Measured value: 0%
[1]; Dose 750 g/ha
  Growth inhibition rate (%) Measured value: 7%
[1]; Dose 1500 g/ha
  Growth inhibition rate (%) Measured value: 55%
[1]; Dose 3000 g/ha
  Growth inhibition rate (%) Measured value: 73%

## Cn1nc(C(F)(F)F)c(CS(=O)(=O)C2=NOC(C)(C)C2)c1OC(F)F [pyroxasulfone]
[2]; Lolium multiflorum, Dose 15 g/ha, read-out: Growth inhibition rate (%) Measured value
  inhibition at 15 g/ha: 0%
[2]; Lolium multiflorum, Dose 30 g/ha, read-out: Growth inhibition rate (%) Measured value
  inhibition at 30 g/ha: 5%
[2]; Lolium multiflorum, Dose 125 g/ha, read-out: Growth inhibition rate (%) Measured value
  inhibition at 125 g/ha: 35%
[2]; Lolium multiflorum, Dose 250 g/ha, read-out: Growth inhibition rate (%) Measured value
  inhibition at 250 g/ha: 42%
[2]; Lolium multiflorum, Dose 500 g/ha, read-out: Growth inhibition rate (%) Measured value
  inhibition at 500 g/ha: 67%
[2]; Lolium multiflorum, Dose 1000 g/ha, read-out: Growth inhibition rate (%) Measured value
  inhibition at 1000 g/ha: 72%
